Results reported in patent US7312358B2, “Pharmaceutically active sulfanilide derivatives” (Laboratoires Serono SA, priority 2000, dated 2007).

Biological target: T1, hOT receptor (Homo sapiens, UniProt P30559)
T1 construct: expressed in transfected cells; host or cells: HEK293EBNA cells (membranes)
T1 sequence (P30559 1-389): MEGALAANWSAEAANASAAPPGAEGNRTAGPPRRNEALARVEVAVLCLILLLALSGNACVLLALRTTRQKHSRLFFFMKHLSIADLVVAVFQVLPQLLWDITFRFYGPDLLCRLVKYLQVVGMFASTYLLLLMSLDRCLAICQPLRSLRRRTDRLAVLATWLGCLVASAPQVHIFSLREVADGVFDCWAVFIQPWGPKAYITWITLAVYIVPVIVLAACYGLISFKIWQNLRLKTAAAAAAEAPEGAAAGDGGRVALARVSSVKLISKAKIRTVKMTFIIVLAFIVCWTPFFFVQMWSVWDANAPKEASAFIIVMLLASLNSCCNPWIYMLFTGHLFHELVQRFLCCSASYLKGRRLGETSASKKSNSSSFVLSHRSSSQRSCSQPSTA
Test: In vitro competition binding assay on hOT receptor with scintillating proximity assay
Details: membranes from HEK293EBNA cells expressing hOT receptor; radiolabel [125I]-OVTA; SPA; read-out: Binding Affinity Human OT-R Ki
Procedure: a) In Vitro Competition Binding Assay on hOT Receptor with Scintillating Proximity Assay (Pharmaceutical Manufacturing International, 1992, p. 49-53 by Cook, N. D. et al)
This assays allows to determine the affinity of the test compounds for the OT receptor. Membranes from HEK293EBNA cells expressing the hOT receptor were resuspended in buffer containing 50 mM Tris-HCl, pH 7.4, 5 mM MgCl2 and 0.1% BSA (w/v). The membranes (2-4 μg) were mixed with 0.1 mg wheat-germ aglutinin (WGA) SPA bead (type A) and 0.2 nM of the radiolabel [^125I]-OVTA (OVTA being […] and is an analogue of OT for competition binding experiments). Non-specific binding was determined in the presence of 1 μM Oxytocin. The total assay volume was 100 μl. The plates (Corning (D NBS plate) were incubated at room temperature for 30 min and counted on a Mibrobeta plate counter. The tests compounds were used in concentrations of 30 μM, 10 μM, 1 μM, 300 nM, 100 nM, 10 nM, 1 nM, 100 pM, 10 pM. The competition binding data were analysed using the iterative, nonlinear, curve-fitting program, “Prism”.
The binding affinities to the oxytocin receptor of the sulfanilide derivatives claimed in the formula I were assessed using the above described in vitro biological assay. The values refer to the binding affinity (IC50; μM) of the example compounds according to formula I to the Oxytocin receptor. From the values shown in Table 1 it can be derived that said test compounds according to formula I do show a significant binding to the oxytocin receptor.

Row | Molecule | Ki [nM]
1 | O=C(CN(c1ccc(Br)cc1)S(=O)(=O)c1ccccc1)Nc1cccc2cccnc12 [2-[Benzenesulfonyl-(4-bromo-phenyl)-amino]-N-quinolin-8-yl-acetamide] | 192
2 | CCOc1ccc(S(=O)(=O)N(CC(=O)N/N=C\c2ccccc2O)c2ccc(C)cc2)cc1 [Example 15, 4-ethoxy-N-{2-[2-(2-hydroxybenzylidene)hydrazino]-2-oxoethyl}-N-(4-methylphenyl)benzenesulfonamide] | 1.2
3 | O=C(CN(c1ccc(Cl)cc1)S(=O)(=O)c1cccs1)N/N=C1\C(=O)Nc2ccccc21 [Example 36, N-(4-chlorophenyl)-N-{2-oxo-2-[(2Z)-2-(2-oxo-1,2-dihydro-3H-indol-3-ylidene)hydrazino]ethyl}-2-thiophenesulfonamide] | 29.3
4 | Cc1ccc(N(CC(=O)N/N=C2\C(=O)Nc3ccccc32)S(=O)(=O)c2ccc(OCCCN(C)C)cc2)cc1 [Example 59, 4-[3-(Dimethylamino)propoxy]-N-(4-methylphenyl)-N-{2-oxo-2-[(2Z)-2-(2-oxo-1,2-dihydro-3H-indol-3-ylidene)hydrazino]ethyl}benzenesulfonamide] | 0.3
5 | COc1ccc(N(CC(=O)N2Cc3ccccc3CC2CC(N)=O)S(=O)(=O)c2ccc(OC)c(OC)c2)cc1 (centres unmarked) [Example 82, 2-[2-({[(3,4-Dimethoxyphenyl)sulfonyl]-4-methoxyanilino}acetyl)-1,2,3,4-tetrahydro-3-isoquinolinyl]acetamide] | 465
6 | CCOc1ccc(S(=O)(=O)N(CC(=O)N2Cc3ccccc3CC2CC(N)=O)c2ccc(C)cc2)cc1 (centres unmarked) [Example 89, 2-[2-({[(4-Ethoxyphenyl)sulfonyl]-4-methylanilino}acetyl)-1,2,3,4-tetrahydro-3-isoguinolinyl]acetamide] | 498
7 | CCOc1ccc(S(=O)(=O)N(CC(=O)N2Cc3ccccc3CC2C(N)=O)c2ccc(OC)cc2)cc1 (centres unmarked) [Example 91, 2-({[(4-Ethoxyphenyl)sulfonyl]-4-methoxyanilino}acetyl)-1.2,3,4-tetrahydro-3-isoquinolinecarboxamide] | 316
8 | Cc1ccc(N(CC(=O)N2CCc3ccccc3C2)S(=O)(=O)c2ccccc2)cc1 [N-[2-(3,4-Dihydro-1H-isoquinolin-2-yl)-2-oxo-ethyl]-N-p-tolyl-benzenesulfonamide] | 472
9 | N-(4-chlorophenyl)-4-ethoxy-N-{2-[(2E)-2-(2-hydroxybenzylidene)hydrazino]-2-oxoethyl}benzenesulfonamide [Example 38] | 14.8

Results, then the molecule that gave them:

Row | Ki [nM] | Molecule
10 | 57.1 | CCOc1ccc(S(=O)(=O)N(CC(=O)N/N=C2\C(=O)Nc3ccncc32)c2ccc(Cl)cc2)cc1 [Example 50, N-(4-chlorophenyl)-4-ethoxy-N-{2-oxo-2-[(2Z)-2-(2-oxo-1,2-dihydro-3H-pyrrolo[3,2-c]pyridin-3-ylidene)hydrazino]ethyl}benzenesulfonamide]
11 | 1.8 | CN(C)CCOc1ccc(S(=O)(=O)N(CC(=O)N/N=C2\C(=O)Nc3ccccc32)c2ccc(Cl)cc2)cc1 [Example 57, N-(4-chlorophenyl)-4-[2-(dimethylamino)ethoxy]-N-{2-oxo-2-[(2Z)-2-(2-oxo-1.2-dihydro-3H-indol-3-ylidene)hydrazino]ethyl}benzenesulfonamide]
12 | 53.3 | O=C(CN(c1ccc(Cl)cc1)S(=O)(=O)c1ccc(OCc2cccs2)cc1)N/N=C1\C(=O)Nc2ccccc21 [Example 60, N-(4-chlorophenyl)-N-{2-oxo-2-[(2Z)-2-(2-oxo-1,2-dihydro-3H-indol-3-ylidene)hydrazino]ethyl}-4-(2-thienylmethoxy)benzenesulfonamide]
13 | 78.1 | CN(C)CCCOc1ccc(S(=O)(=O)N(CC(=O)N/N=C2\C(=O)Nc3ccncc32)c2ccc(Cl)cc2)cc1 [Example 68, N-(4-chlorophenyl)-4-[3-(dimethylamino)propoxy]-N-{2-oxo-2-[(2Z)-2-(2-oxo-1,2-dihydro-3H-pyrrolo[3,2-c]pyridin-3-ylidene)hydrazino]ethyl}benzenesulfonamide]

Test system: not given
Test: not given
Details: not given

Row | Molecule | melting point
14 | CCOc1ccc(S(=O)(=O)N(CC(=O)N/N=C2/C(=O)Nc3ccc([N+](=O)[O-])cc32)c2ccccc2)cc1 [Example 3, 4-ethoxy-N-{2-[2-(5-nitro-2-oxo-1,2-dihydro-3H-indol-3-ylidene)hydrazino]-2-oxoethyl}-N-phenylbenzenesulfonamide] | 252 to 253 °C
15 | Cc1ccc(N(CC(=O)N/N=C2/C(=O)Nc3ccccc32)S(=O)(=O)c2cccc3ccccc23)cc1 [Example 6, N-(4-methylphenyl)-N-{2-oxo-2-[2-(2-oxo-1,2-dihydro-3H-indol-3-ylidene)hydrazino]ethyl}-1-naphthalenesulfonamide] | 138 to 139 °C
16 | COc1ccc(S(=O)(=O)N(CC(=O)N/N=C2/C(=O)Nc3ccccc32)c2ccc(C)cc2)cc1 [Example 9, 4-methoxy-N-(4-methylphenyl)-N-{2-oxo-2-[2-(2-oxo-1,2-dihydro-3H-indol-3-ylidene)hydrazino]ethyl}benzenesulfonamide] | 134 to 135 °C
17 | Cc1ccc(N(CC(=O)N/N=C2/C(=O)Nc3ccccc32)S(=O)(=O)c2ccc(C)cc2)cc1 [Example 10, 4-methyl-N-(4-methylphenyl)-N-{2-oxo-2-[2-(2-oxo-1,2-dihydro-3H-indol-3-ylidene)hydrazino]ethyl}benzenesulfonamide] | 243 to 244 °C
18 | CCOc1ccc(S(=O)(=O)N(CC(=O)N/N=C\c2ccccc2F)c2ccc(C)cc2)cc1 [Example 12, 4-ethoxy-N-{2-[2-(2-fluorobenzylidene)hydrazino]-2-oxoethyl}-N-(4-methylphenyl)benzenesulfonamide] | 183 to 184 °C
19 | Cc1ccc(N(CC(=O)N/N=C2/C(=O)Nc3ccccc32)S(=O)(=O)c2ccc(-c3ccccc3)cc2)cc1 [Example 13, N-(4-methylphenyl)-N-{2-oxo-2-[2-(2-oxo-1.2-dihydro-3H-indol-3-ylidene)hydrazino]ethyl}[1,1′-biphenyl]-4-sulfonamide] | 246 to 247 °C
20 | Cc1ccc(N(CC(=O)N/N=C2/C(=O)Nc3ccccc32)S(=O)(=O)c2ccc(Oc3ccccc3)cc2)cc1 [Example 14, N-(4-methylphenyl)-N-{2-oxo-2-[2-(2-oxo-1,2-dihydro-3H-indol-3-ylidene)hydrazino]ethyl}-4-phenoxybenzenesulfonamide] | 245 to 246 °C
21 | CCOc1ccc(S(=O)(=O)N(CC(=O)N/N=C\c2ccc(N(CC)CC)cc2O)c2ccc(C)cc2)cc1 [Example 16, N-(2-{2-[4-(diethylamino)-2-hydroxybenzylidene]hydrazino}-2-oxoethyl)-4-ethoxy-N-(4-methylphenyl)benzenesulfonamide] | 227 to 228 °C
22 | COc1ccc(-c2ccc(S(=O)(=O)N(CC(=O)N/N=C3\C(=O)Nc4ccccc43)c3ccc(C)cc3)cc2)cc1 [Example 19, 4′-methoxy-N-(4-methylphenyl)-N-{2-oxo-2-[2-(2-oxo-1,2-dihydro-3H-indol-3-ylidene)hydrazino]ethyl}[1,1′-biphenyl]-4-sulfonamide] | 235 to 236 °C

Results, then the molecule that gave them:

Row | melting point | Molecule
23 | 318 to 319 °C (dec.) | CCOc1ccc(S(=O)(=O)N(CC(=O)N/N=C2/C(=O)Nc3ccc(S(=O)(=O)O)cc32)c2ccc(C)cc2)cc1 [Example 1, 3-[({[(4-ethoxyphenyl)sulfonyl]-4-methylanilino}acetyl)hydrazono]-2-oxo-2,3-dihydro-H-indole-5-sulfonic Acid]
24 | 135.5 to 136.5 °C | CCOc1ccc(S(=O)(=O)N(CC(=O)N/N=C2/C(=O)Nc3ccccc32)c2ccccc2)cc1 [Example 2, 4-ethoxy-N-{2-oxo-2-[2-(2-oxo-1,2-dihydro-3H-indol-3-ylidene)hydrazino]-ethyl}-N-phenylbenzenesulfonamide]
25 | 233 to 234 °C | CCOc1ccc(S(=O)(=O)N(CC(=O)N/N=C2/C(=O)Nc3ccc(I)cc32)c2ccccc2)cc1 [Example 4, 4-ethoxy-N-{2-[2-(5-iodo-2-oxo-1,2-dihydro-3H-indol-3-ylidene)hydrazino]-2-oxoethyl}-N-phenylbenzenesulfonamide]
26 | 234 to 235 °C | Cc1ccc(N(CC(=O)N/N=C2/C(=O)Nc3ccccc32)S(=O)(=O)c2ccc(Cl)cc2)cc1 [Example 8, 4-chloro-N-(4-methylphenyl)-N-{2-oxo-2-[2-(2-oxo-1,2-dihydro-3H-indol-3-ylidene)hydrazino]ethyl}benzenesulfonamide]
